Experimental data from patent US11565003B2, “Mechanical opening of lipid bilayers by molecular nanomachines” (William Marsh Rice University, priority 2016, dated 2023).
Starred links: 1 amine or outer side, 2 acyl side, 3 side chain; linkers in the order of their positions; H or OH if unused. Positions of bridges follow the written chain, without caps; N, C: chain ends. Residues, ends and D or L forms follow the SMILES beside them. Chains are numbered I, II in the order given. X2 = C[C@@H]1Cc2ccc3ccccc3c2C1=C1c2cc(C#CCCn3cc(C(=O)[*:1])nn3)ccc2Sc2ccc(C#CCCn3cc(C(=O)[*:2])nn3)cc21

Experiments:
NIH 3T3 cells = assay: UV-activated nanomechanical necrosis, live cell confocal microscopy, NIH 3T3; type: cell-based, mouse; conditions: for Time of Full Necrosis / Time of Initial Necrosis / % acceleration for full necrosis: 355 nm UV; for % acceleration for full necrosis: versus UV upon blank cells
Method: (§1) Following the synthetic bilipid vesicle experiments, nanomechanical action upon live cells was studied using confocal microscopy aided by a super-resolution technique called Phase Modulation Nanoscopy. Applicants used two experimental methods. In the first method (Method A), the molecular motors were loaded into the cell media and the imaging was initiated within 5 minutes to 24 hours. In the second method, (Method B), the molecular motors were loaded into the cell media, incubated for 30 minutes to 24 hours, and then washed three times with fresh molecular motor-free media before imaging. […]
(§2) Microscopy cells were seeded in untreated iBibi 100 μL live cell channels and allowed to grow to 40% to 60% confluence, at 37° C. in 5% CO2. At this stage, the medium was replaced and cells were treated with the studied nanomachines and co-stains as appropriate, with 0.1% DMSO (as detailed above) present in the final imaging medium. For live cell imaging, DMEM/F12 media (10% FBS) lacking phenol red was used from this point onwards. Following incubation, where Method B was used, the channels were washed with live cell imaging media and imaged using a purpose build incubator housing the microscope maintaining 37° C., 5% CO2 and 10% humidity.
(§3) All live cell imaging experiments used either NIH 3T3 mouse skin fibroblast cells, PC-3 cells, a grade 3 human prostate adenocarcinoma, or Chinese hamster ovary cells (CHO). These are all well-studied cell lines with discrete morphological compositions. Each molecular machine was used as a stock solution at 0.10 to 1.00 μM with total dimethyl sulfoxide (DMSO) concentrations not exceeding 0.1% in the final cell media in order to avoid unwanted cell membrane permeabilization, the DMSO being required for solubility of the organic nanomachines. All loading experiments are carried out in a light-suppressed manner and the possibility of induced or accelerated uptake due to interaction between the molecular motors and the applied co-stain has been eliminated using a series of individual and reversed loading experiments.
(§4) All experimental imaging parameters (i.e., laser beam size, confocal pinhole size, laser intensity, line scanning speed, scanning area (field of view, FOV), and line averaging sequences) were kept constant throughout the experiments. The accuracy and errors associated with the establishment of accelerated necrosis are determined based on one dual channel imaging sequence, which takes 15 seconds in total. This imaging sequence has been carefully established using untreated live cells.
(§5) Steady state fluorescence images were recorded using a PhMoNa enhanced Leica SP5 II LSCM equipped with a HCX PL APO 63×/1.40 NA LambdaBlue Oil immersion objective. As an initial control experiment to establish the UV-induced cell toxicity threshold, while mitigating voxel exposure and ensuring sufficient laser dwell time, an imaging sequence has been established to monitor cell morphological and physiological changes as a function of time. All experiments used cell-line-determined culture medium containing 0.1% DMSO.
(§6) The applied 100 Hz detection sequence was based on a bidirectional dual-channel continuous scanning method where a minimalistic non-damaging visible laser light (458 nm, 0.2 mW) is used in conjunction with the above detailed UV exposure. This is set as a 2 line/scan accumulation parallel acquisition sequence that is recorded as a function of time. Studied channels correspond to transmission images and UV-induced mitochondrial auto-fluorescence detected at 460 to 550 nm. Applicants further confirmed that the effectiveness of monitoring the UV-activated nanomechanical action on live cells using a conventional CW mercury-arc excitation source equipped with an epi-fluorescence setup consisting of a Zeiss Axiovert 200M inverted microscope, as discussed in FIGS. 18A-C. […]

PC-3 cells [1] = assay: Two-photon near-infra red activation, PI dye entry, PC-3; type: cell-based, human; conditions: PC-3, 1 μM, PI 200 nM
Method: Two-photon microscopy studies of NIH 3T3 cells were executed on a Nikon E600 upright confocal microscope coupled to a tuneable (710-950 nm Coherent MaiTai) multiphoton source operating at (20%) 240 mW power using a 166 lps scan speed and 128×128 pixel frame resolution for MP-illumination. Images (512×512 pixel, 166 lps) were recorded using a 543 nm (1 mW HeNe) laser combined with a 560 nm long-pass filter to record PI (200 nM) fluorescence and follow the onset of induced necrosis.
Two photon live cell microscopy studies were also executed on a Nikon E600 upright confocal microscope coupled to a tuneable (710-950 nm Coherent MaiTai) multiphoton source operating at (19.8%) 240 mW power at 720 nm using 166 lines/sec scan speed and 128×128 pixel frame resolution for MP-illumination. An oil immersion Nikon IR objective (×60/1.4 NA) was used. Images (512×512 pixel, 166 l/s) were recorded using a 543 nm (1 mW HeNe) laser combined with a 570 nm long-pass filter to record PI dyes (200 nM). Fluorescence was measured as 2 frame averaged images in order to follow the onset of induced necrosis. Necrosis times have been assigned to detectable PI signals in the nucleolus.

PC-3 cells [2] = assay: 24 hours incubation without UV: proliferation and apoptosis (Annexin V, Image Cytometry); type: cell-based, human
Method: When PC-3 cells are loaded at 0.5 or 1.0 μM with 9 or 10, washed three times (Method B) or unwashed (Method A) after 24 hours of incubation, the cells visually appear without major signs of toxicity. However, the cells which had been incubated with 9 or 10 over 24 hours were not dividing as prolifically. The cultures appear to be populated ˜25% less in the presence of 9 and 20% of the cells in 10 compared to control untreated cells (FIGS. 12A-E).
In order to further investigate this point, these cells were collected via gentle centrifugation and re-suspended in fresh PBS and analyzed by Image Cytometry. Using Annexin V, these cells were all confirmed to show signs of apoptosis at 93±5%. This is in contrast to the remaining coverslip surface-bound cells that appear healthy.
These latter types of non-apoptotic cells show identical percentage of necrosis acceleration upon subsequent UV-activation of the cell-surface bound nanomachines compared to their shorter incubation time analogues. Thus, it appears that, upon 24 hour incubation, a noticeable amount of cells have nanomachines 9 and 10 either bound to vital cell membrane channels or transport proteins or they are internalized, subsequently shutting down some natural homeostatic mechanisms that leads to programmed cell death (FIGS. 12A-E). Furthermore, this is not the case with shorter incubation times regardless of whether Method A or B is used.

CHO cells = assay: UV-activated nanomechanical necrosis, live cell confocal microscopy, CHO; type: cell-based, Chinese hamster; conditions: 355 nm UV; for % acceleration for full necrosis: versus UV upon blank cells
Method: as §1, §2, §3, §4, §5, §6

[3] = NIH 3T3, Method B (washed three times)

CC(C)[C@H](NC(=O)[C@H](CCCNC(=N)N)NC(=O)[C@@H](NC(=O)[C@H](CC(N)=O)NC(=O)[C@H](CO)NC(=O)c1cn(CCC#Cc2ccc3c(c2)C(=C2c4c(ccc5ccccc45)C[C@H]2C)c2cc(C#CCCn4cc(C(=O)N[C@@H](CO)C(=O)N[C@@H](CC(N)=O)C(=O)N[C@H](C(=O)N[C@@H](CCCNC(=N)N)C(=O)N[C@H](C(=O)N[C@@H](C)C(=O)N5CCC[C@H]5C(=O)O)C(C)C)[C@@H](C)O)nn4)ccc2S3)nn1)[C@@H](C)O)C(=O)N[C@@H](C)C(=O)N1CCC[C@H]1C(=O)O [Compound 9] (I: SNTRVAP-OH / II: SNTRVAP-OH; linker I:N-II:N via X2)
Time of Full Necrosis (NIH 3T3 cells; NIH 3T3, Method A (no washing)): 570 s
Time of Initial Necrosis (NIH 3T3 cells; NIH 3T3, Method A (no washing)): 300 s
% acceleration for full necrosis (NIH 3T3 cells; NIH 3T3, Method A): 5%
Time of Full Necrosis (NIH 3T3 cells; [3]): 600 s
Time of Initial Necrosis (NIH 3T3 cells; [3]): 300 s
% acceleration for full necrosis (NIH 3T3 cells; NIH 3T3, Method B): 0%
UV-accelerated nanomechanical necrosis after 24 hours incubation (in words) (NIH 3T3 cells; NIH 3T3, incubated 24 hours): no change in rates
PI dye entry upon two-photon near-infra red illumination (in words) (PC-3 cells [1]): resulting in Propidium Iodide (PI) dyes entering
cultures populated less compared to control untreated cells (PC-3 cells [2]; PC-3, 0.5 or 1.0 μM, 24 hours of incubation, no UV): ~25%
mobilized cells showing signs of apoptosis (Annexin V) (PC-3 cells [2]; PC-3, 24 hours incubation, cells collected from culture media): 93±5%
Time of Full Necrosis (CHO cells; Method A (no washing)): 585 s
Time of Initial Necrosis (CHO cells; Method A (no washing)): 300 s
% acceleration for full necrosis (CHO cells; Method A): 2.5%
Time of Full Necrosis (CHO cells; Method B (washed three times)): 570 s
Time of Initial Necrosis (CHO cells; Method B (washed three times)): 285 s
% acceleration for full necrosis (CHO cells; Method B): 5%
